{
  "source": "patent US20240158355A1",
  "about": "“BET SUBFAMILY INHIBITORS AND METHODS USING SAME” (Baylor College of Medicine, priority 2021, published 2024)",
  "key": {"[1]": {"conditions": "mouse, in vivo; cited from earlier work"}, "mice": {"system": "mice", "conditions": "cited from earlier work"}, "BRD4-BD2": {"target": "BRD4-BD2 (Homo sapiens (Human), UniProt O60885)", "conditions": "cited from earlier work"}, "BD2": {"system": "BD2", "conditions": "cited from earlier work"}, "BRDT-BD1": {"target": "BRDT-BD1 (Homo sapiens (Human), UniProt Q58F21)", "experiment": "AlphaScreen bromodomain proximity assay (competition with biotinylated (+)-JQ1), BRDT-BD1", "format": "binding", "conditions": "NE: no effect at 10 μM"}, "[2]": {"experiment": "Metabolic stability assay in human liver microsomes", "format": "in vitro ADME", "conditions": "for half-life at 2 μM: read-out: HLM t1/2; for human microsomal stability: in words", "method": "(§1) Compounds 3-10, 15, 17, and 20-22 (2.0 μM) were incubated in the mouse or human liver microsomes (0.5 mg protein/mL) at 37° C. […] The reaction mixtures were centrifuged at rcf 15,000 for 15 min. […] The column temperature was maintained at 40° C. […] Q Exactive MS was operated in positive or negative mode with electrospray ionization."}, "[3]": {"experiment": "Metabolic stability assay in mouse liver microsomes", "format": "in vitro ADME", "conditions": "for half-life at 2 μM: 0.5 mg protein/mL, 37° C., read-out: MLM t1/2; for mouse microsomal stability: in words", "method": "as §1"}, "His-BRDT-BD2": {"target": "His-BRDT-BD2 (Homo sapiens (Human), UniProt Q58F21)", "conditions": "0 = theoretically present in the library but not detected in the sequencing data"}, "BRDT-BD2 [4]": {"target": "T1, BRDT-BD2 (Homo sapiens (Human), UniProt Q58F21)", "experiment": "AlphaScreen bromodomain proximity assay (competition with biotinylated (+)-JQ1), BRDT-BD2", "format": "binding"}, "BRDT-BD2 [5]": {"target": "T1, BRDT-BD2", "conditions": "BromoKdELECT dose-response", "experimental": "(§2) Binding constants (Kds) were calculated with a standard dose-response curve using the Hill equation:\n1+(KdHill Slope/DoseHill Slope)\nThe Hill Slope was set to −1.\n(§3) Curves were fitted using a non-linear least square fit with the Levenberg-Marquardt algorithm."}, "bromodomains": {"system": "bromodomains", "conditions": "BROMOscan competition binding", "experimental": "as §2\n1+(KdHill Slope/DoseHill Slope)\nThe Hill Slope was set to −1.\nas §3"}, "[6]": {"conditions": "data >60 min is an extrapolated estimate"}, "[7]": {"conditions": "2.0 μM, 0.5 mg protein/mL, 37° C."}},
  "data": [
    {"smiles": "Cc1sc2c(c1C)C(c1ccc(Cl)cc1)=N[C@@H](CC(=O)OC(C)(C)C)c1nnc(C)n1-2", "note": "[(+)-JQ1, tert-butyl (S)-2-(4-(4-chlorophenyl)-2,3,9-trimethyl-6H-thieno[3,2-f][1,2,4]triazolo[4,3-a][1,4]diazepin-6-yl)acetate]", "values": [
      {"measurement": "bioavailable across the blood-testis boundary", "setting": "[1]", "result": 100, "unit": "%"},
      {"measurement": "contraceptive effect", "setting": "mice", "result": "complete and reversible contraceptive effect"}
    ]},
    {"smiles": "CCNC(=O)c1cc2c(-c3cc(C(C)(C)O)ccc3Oc3c(C)cc(F)cc3C)cn(C)c(=O)c2[nH]1", "note": "[ABBV-744]", "values": [
      {"measurement": "selectivity for BRD4-BD2", "setting": "BRD4-BD2", "result": "95-290 fold"}
    ]},
    {"smiles": "CC(=O)Nc1c(F)cc(C(=O)N[C@H]2CC[C@H](O)CC2)cc1O[C@@H](C)c1ccccc1", "note": "[GSK046]", "values": [
      {"measurement": "selectivity for BD2 over BD1", "setting": "BD2", "result": "> 300", "unit": "fold"}
    ]},
    {"smiles": "CNC(=O)c1ccc(C(=O)Nc2cc(NC(=O)c3ccc4c(c3)c(-c3cc5ccccc5n3C)nn4C)ccc2OC)cc1", "note": "[compound 3, N^1-(2-Methoxy-5-(1-methyl-3-(1-methyl-1H-indol-2-yl)-1H-indazole-5-carboxamido)phenyl)-N^4-methylterephthalamide]", "values": [
      {"measurement": "IC50", "setting": "BRDT-BD1", "result": "> 10000", "unit": "nM"},
      {"measurement": "half-life at 2 μM", "setting": "[2]; [6]", "result": 87, "unit": "min"},
      {"measurement": "half-life at 2 μM", "setting": "[3]", "result": 31, "unit": "min"},
      {"measurement": "Count (observed molecule count in the DEC-Tec screen against BRDT-BD2)", "setting": "His-BRDT-BD2", "result": 1039},
      {"measurement": "IC50", "setting": "BRDT-BD2 [4]", "result": 22, "unit": "nM"}
    ]},
    {"smiles": "CNC(=O)c1ccc(C(=O)Nc2cc(NC(=O)c3ccc4c(c3)c(-c3ccc(N)cc3C)nn4C)ccc2OC)cc1", "note": "[compound 4, N^1-(5-(3-(4-Amino-2-methylphenyl)-1-methyl-1H-indazole-5-carboxamido)-2-methoxyphenyl)-N^4-methylterephthalamide]", "values": [
      {"measurement": "IC50", "setting": "BRDT-BD1", "result": "> 10000", "unit": "nM"},
      {"measurement": "half-life at 2 μM", "setting": "[2]; [6]", "result": 100, "unit": "min"},
      {"measurement": "half-life at 2 μM", "setting": "[3]", "result": 14, "unit": "min"},
      {"measurement": "Count (observed molecule count in the DEC-Tec screen against BRDT-BD2)", "setting": "His-BRDT-BD2", "result": 838},
      {"measurement": "IC50", "setting": "BRDT-BD2 [4]", "result": 12, "unit": "nM"}
    ]},
    {"smiles": "CNC(=O)c1ccc(C(=O)Nc2cc(NC(=O)c3ccc4c(c3)c(-c3ccc(C)cc3C)nn4C)ccc2OC)cc1", "note": "[compound 5, N^1-(5-(3-(2,4-Dimethylphenyl)-1-methyl-1H-indazole-5-carboxamido)-2-methoxyphenyl)-N^4-methylterephthalamide]", "values": [
      {"measurement": "IC50", "setting": "BRDT-BD1", "result": "> 10000", "unit": "nM"},
      {"measurement": "half-life at 2 μM", "setting": "[2]; [7]", "result": 18, "unit": "min"},
      {"measurement": "half-life at 2 μM", "setting": "[3]", "result": 20, "unit": "min"},
      {"measurement": "Count (observed molecule count in the DEC-Tec screen against BRDT-BD2)", "setting": "His-BRDT-BD2", "result": 515},
      {"measurement": "IC50", "setting": "BRDT-BD2 [4]", "result": 26, "unit": "nM"}
    ]},
    {"smiles": "CNC(=O)c1ccc(C(=O)Nc2cc(NC(=O)c3ccc4c(c3)c(-c3ccccc3C)nn4C)ccc2OC)cc1", "note": "[compound 6, N^1-(2-Methoxy-5-(1-methyl-3-(o-tolyl)-1H-indazole-5-carboxamido)phenyl)-N^4-methylterephthalamide]", "values": [
      {"measurement": "IC50", "setting": "BRDT-BD1", "result": 6300, "unit": "nM"},
      {"measurement": "half-life at 2 μM", "setting": "[2]; [7]", "result": 17, "unit": "min"},
      {"measurement": "half-life at 2 μM", "setting": "[3]", "result": 40, "unit": "min"},
      {"measurement": "Count (observed molecule count in the DEC-Tec screen against BRDT-BD2)", "setting": "His-BRDT-BD2", "result": 0},
      {"measurement": "IC50", "setting": "BRDT-BD2 [4]", "result": 61, "unit": "nM"}
    ]},
    {"smiles": "CNC(=O)c1ccc(C(=O)Nc2cc(NC(=O)c3ccc4c(c3)c(-c3ccc(N)cc3)nn4C)ccc2OC)cc1", "note": "[compound 7, N^1-(5-(3-(4-Aminophenyl)-1-methyl-1H-indazole-5-carboxamido)-2-methoxyphenyl)-N^4-methylterephthalamide]", "values": [
      {"measurement": "IC50", "setting": "BRDT-BD1", "result": "> 10000", "unit": "nM"},
      {"measurement": "half-life at 2 μM", "setting": "[2]; [6]", "result": 250, "unit": "min"},
      {"measurement": "half-life at 2 μM", "setting": "[3]", "result": 51, "unit": "min"},
      {"measurement": "Count (observed molecule count in the DEC-Tec screen against BRDT-BD2)", "setting": "His-BRDT-BD2", "result": 63},
      {"measurement": "IC50", "setting": "BRDT-BD2 [4]", "result": 15, "unit": "nM"}
    ]},
    {"smiles": "CNC(=O)c1ccc(C(=O)Nc2cc(NC(=O)c3ccc4c(c3)c(-c3cc5ccccc5n3C)nn4C)ccc2C)cc1", "note": "[compound 8, N^1-Methyl-N^4-(2-methyl-5-(1-methyl-3-(1-methyl-1H-indol-2-yl)-1H-indazole-5-carboxamido)phenyl)terephthalamide]", "values": [
      {"measurement": "IC50", "setting": "BRDT-BD1", "result": "> 10000", "unit": "nM"},
      {"measurement": "Count (observed molecule count in the DEC-Tec screen against BRDT-BD2)", "setting": "His-BRDT-BD2", "result": 846},
      {"measurement": "IC50", "setting": "BRDT-BD2 [4]", "result": 13, "unit": "nM"}
    ]},
    {"smiles": "CNC(=O)c1ccc(C(=O)Nc2cc(NC(=O)c3ccc4c(c3)c(-c3ccc(N)cc3C)nn4C)ccc2C)cc1", "note": "[compound 9, N^1-(5-(3-(4-Amino-2-methylphenyl)-1-methyl-1H-indazole-5-carboxamido)-2-methylphenyl)-N^4-methylterephthalamide]", "values": [
      {"measurement": "human microsomal stability", "setting": "[2]", "result": "high metabolic stability"}
    ]},
    {"smiles": "CNC(=O)c1ccc(C(=O)Nc2cc(NC(=O)c3ccc4c(c3)c(-c3ccc(N)nc3)nn4C)ccc2C)cc1", "note": "[compound 10, N^1-(5-(3-(6-Aminopyridin-3-yl)-1-methyl-1H-indazole-5-carboxamido)-2-methylphenyl)-N^4-methylterephthalamide]", "values": [
      {"measurement": "IC50", "setting": "BRDT-BD1", "result": "> 10000", "unit": "nM"},
      {"measurement": "human microsomal stability", "setting": "[2]", "result": "high metabolic stability"},
      {"measurement": "mouse microsomal stability", "setting": "[3]", "result": "high metabolic stability"},
      {"measurement": "Count (observed molecule count in the DEC-Tec screen against BRDT-BD2)", "setting": "His-BRDT-BD2", "result": 3},
      {"measurement": "IC50", "setting": "BRDT-BD2 [4]", "result": 17, "unit": "nM"}
    ]},
    {"smiles": "CNC(=O)c1ccc(C(=O)Nc2cc(NC(=O)c3ccc4c(c3)c(-c3ccncc3)nn4C)ccc2C)cc1", "note": "[compound 12, N^1-Methyl-N^4-(2-methyl-5-(1-methyl-3-(pyridin-4-yl)-1H-indazole-5-carboxamido)phenyl)terephthalamide]", "values": [
      {"measurement": "IC50", "setting": "BRDT-BD1", "result": "> 10000", "unit": "nM"},
      {"measurement": "Count (observed molecule count in the DEC-Tec screen against BRDT-BD2)", "setting": "His-BRDT-BD2", "result": 0},
      {"measurement": "IC50", "setting": "BRDT-BD2 [4]", "result": 978, "unit": "nM"}
    ]},
    {"smiles": "CC(=O)Nc1cc(NC(=O)c2ccc3c(c2)c(-c2ccc(N)cc2C)nn3C)ccc1C", "note": "[compound 20, N-(3-Acetamido-4-methylphenyl)-3-(4-amino-2-methylphenyl)-1-methyl-1H-indazole-5-carboxamide]", "values": [
      {"measurement": "IC50", "setting": "BRDT-BD1", "result": "> 10000", "unit": "nM"},
      {"measurement": "potency at binding BRDT-BD2 relative to (+)-JQ1", "setting": "BRDT-BD2 [5]", "result": "more than 20 fold"},
      {"measurement": "binding selectivity across bromodomains", "setting": "bromodomains", "result": "potent and selective binding to only the second bromodomains within the BET subfamily"},
      {"measurement": "IC50", "setting": "BRDT-BD2 [4]", "result": 8, "unit": "nM"}
    ]},
    {"smiles": "CNC(=O)c1cc(NC(=O)c2ccc3c(c2)c(-c2ccc(N)cc2C)nn3C)ccc1C", "note": "[compound 22, 3-(4-Amino-2-methylphenyl)-1-methyl-N-(4-methyl-3-(methylcarbamoyl)phenyl)-1H-indazole-5-carboxamide]", "values": [
      {"measurement": "IC50", "setting": "BRDT-BD1", "result": "> 10000", "unit": "nM"},
      {"measurement": "mouse microsomal stability", "setting": "[3]", "result": "high mouse microsomal stability"},
      {"measurement": "IC50", "setting": "BRDT-BD2 [4]", "result": 18, "unit": "nM"}
    ]}
  ]
}
